The record followed here is patent publication US10265298B2, “Method of increasing the bioavailability of silybin” (Macau University of Science and Technology, priority 2017, dated 2019).

Molecules are shown by their SMILES.

Series [1] addresses T1, BCRP (Homo sapiens, UniProt Q9UNQ0).
T1 sequence (Q9UNQ0 1-655): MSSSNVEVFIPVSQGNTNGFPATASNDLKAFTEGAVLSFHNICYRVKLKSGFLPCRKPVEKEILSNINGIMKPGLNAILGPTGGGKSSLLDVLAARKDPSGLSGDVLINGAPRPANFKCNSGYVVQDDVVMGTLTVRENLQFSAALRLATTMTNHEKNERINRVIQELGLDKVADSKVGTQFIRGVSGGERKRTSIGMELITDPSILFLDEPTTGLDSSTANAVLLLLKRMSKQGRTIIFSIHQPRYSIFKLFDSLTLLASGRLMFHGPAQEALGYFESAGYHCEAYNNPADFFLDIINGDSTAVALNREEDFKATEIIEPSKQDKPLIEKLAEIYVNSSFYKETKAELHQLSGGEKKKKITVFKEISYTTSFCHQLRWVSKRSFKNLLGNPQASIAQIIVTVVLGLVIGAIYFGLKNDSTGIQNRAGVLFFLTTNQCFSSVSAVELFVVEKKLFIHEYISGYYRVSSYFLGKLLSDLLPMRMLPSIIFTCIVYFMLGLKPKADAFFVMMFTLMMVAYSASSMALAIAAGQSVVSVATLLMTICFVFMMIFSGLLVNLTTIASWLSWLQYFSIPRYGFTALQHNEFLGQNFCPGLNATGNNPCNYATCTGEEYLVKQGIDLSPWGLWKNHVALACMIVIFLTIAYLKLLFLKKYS
Put plainly: Inhibition of pheophorbide A (Ph A) efflux in MDCKII-BCRP cell monolayers. Conditions: for mean efflux ratio of Ph A in the presence of inhibitor: dog, 180 min. On the procedure: Parental Madin-Darby canine kidney II (MDCKII), multi-drug resistance gene 1-Madin-Darby canine kidney II (MDR1-MDCKII), breast cancer resistance protein-Madin-Darby canine kidney II (BCRP-MDCKII), and multi-drug resistance protein 2-Madin-Darby canine kidney II (MRP2-MDCKII) cells were kindly provided by the Netherlands Cancer Institute (Amsterdam, Netherlands) and frozen at −80° C. The MDCKII cells were cultured at 37° C./5% CO2 in Dulbecco's modified Eagle's medium supplemented with 10% fetal bovine serum, 1% nonessential amino acids, and 2% penicillin-streptomycin. The cells were seeded on transwell inserts (Corning Inc.) at a density of 2.0×10^5 cells/cm^2 and grown for 4-5 days to form confluent monolayers.
Bidirectional transport assays in human colorectal adenocarcinoma 2 (Caco-2) and Madin-Darby canine kidney II (MDCK II) was carried out by dosing substrates in assay buffer to either the apical chamber (A-to-B) or the basolateral chamber (B-to-A); cells were then incubated at 37° C. with shaking at 50 rotations per minute (rpm), and 100 μl samples were collected at 30, 60, 90, 120 and 180 minutes from the basolateral chamber to study the drug transport of AP to BL, or apical chamber to study the drug transport of BL to AP. Cell monolayers were then washed twice with ice-cold assay buffer and lysed with methanol on ice for 10 minutes. For inhibition studies, Caco-2 or MDCK II cell monolayers were pre-incubated with an inhibitor in both apical and basolateral chambers for 30 minutes, and bidirectional transport of 10 μM silybin was conducted in the absence (control) or presence of the inhibitor in both chambers. […] For fluorescence intensity detection, samples collected from AP or BL side were immediately detected in 96 well black plate by Microplate ultraviolet-visible spectroscopy (UV/VIS) spectrophotometer (TECAN infinite M200 PRO, Männedorf, Switzerland). In all cases, each determination was performed in triplicate.
The apparent permeability coefficients (Papp) were calculated as Papp=dQ/dt×1/(C“0”A) where dQ/dt (mM/sec) is the rate of permeation of the drug across the cells, C0 (millimolar (mM)) is the donor compartment concentration at time zero and A (cm^2) is the area of the cell monolayer. C0 is obtained from analysis of the dosing solution at the start experiment. Efflux Ratio (ER)=Papp (B to A)/Papp (A to B), while Papp (B−A) is the Papp value measured in the B to A direction, and Papp (A−B) is the Papp value measured in the A to B direction. 1.5 Preparation of Rat Sandwich-Cultured Hepatocytes
(§1) (*, P<0.05;**, P<0.01; ***, P<0.001 vs absence of any inhibitor. n=3).
as §1

Series [2] has as its target T1, BCRP. Put plainly: Transport of silybin across MDCKII-BCRP cells. The series is classed as in vitro ADME. Details: host or cells: MDCKII (Madin-Darby canine kidney II). On the procedure:
(§2) In all cases, each determination was performed in triplicate.
(§3) 1.5 Preparation of Rat Sandwich-Cultured Hepatocytes

For a further series, the target named is MRP2 (Homo sapiens, UniProt Q92887). The series is classed as in vitro ADME. Conditions: for mean net efflux ratio: Caco-2. Details: host or cells: MDCKII (Madin-Darby canine kidney II). As to the method: as §2, §3
Chain of MRP2 (Q92887 whole entry): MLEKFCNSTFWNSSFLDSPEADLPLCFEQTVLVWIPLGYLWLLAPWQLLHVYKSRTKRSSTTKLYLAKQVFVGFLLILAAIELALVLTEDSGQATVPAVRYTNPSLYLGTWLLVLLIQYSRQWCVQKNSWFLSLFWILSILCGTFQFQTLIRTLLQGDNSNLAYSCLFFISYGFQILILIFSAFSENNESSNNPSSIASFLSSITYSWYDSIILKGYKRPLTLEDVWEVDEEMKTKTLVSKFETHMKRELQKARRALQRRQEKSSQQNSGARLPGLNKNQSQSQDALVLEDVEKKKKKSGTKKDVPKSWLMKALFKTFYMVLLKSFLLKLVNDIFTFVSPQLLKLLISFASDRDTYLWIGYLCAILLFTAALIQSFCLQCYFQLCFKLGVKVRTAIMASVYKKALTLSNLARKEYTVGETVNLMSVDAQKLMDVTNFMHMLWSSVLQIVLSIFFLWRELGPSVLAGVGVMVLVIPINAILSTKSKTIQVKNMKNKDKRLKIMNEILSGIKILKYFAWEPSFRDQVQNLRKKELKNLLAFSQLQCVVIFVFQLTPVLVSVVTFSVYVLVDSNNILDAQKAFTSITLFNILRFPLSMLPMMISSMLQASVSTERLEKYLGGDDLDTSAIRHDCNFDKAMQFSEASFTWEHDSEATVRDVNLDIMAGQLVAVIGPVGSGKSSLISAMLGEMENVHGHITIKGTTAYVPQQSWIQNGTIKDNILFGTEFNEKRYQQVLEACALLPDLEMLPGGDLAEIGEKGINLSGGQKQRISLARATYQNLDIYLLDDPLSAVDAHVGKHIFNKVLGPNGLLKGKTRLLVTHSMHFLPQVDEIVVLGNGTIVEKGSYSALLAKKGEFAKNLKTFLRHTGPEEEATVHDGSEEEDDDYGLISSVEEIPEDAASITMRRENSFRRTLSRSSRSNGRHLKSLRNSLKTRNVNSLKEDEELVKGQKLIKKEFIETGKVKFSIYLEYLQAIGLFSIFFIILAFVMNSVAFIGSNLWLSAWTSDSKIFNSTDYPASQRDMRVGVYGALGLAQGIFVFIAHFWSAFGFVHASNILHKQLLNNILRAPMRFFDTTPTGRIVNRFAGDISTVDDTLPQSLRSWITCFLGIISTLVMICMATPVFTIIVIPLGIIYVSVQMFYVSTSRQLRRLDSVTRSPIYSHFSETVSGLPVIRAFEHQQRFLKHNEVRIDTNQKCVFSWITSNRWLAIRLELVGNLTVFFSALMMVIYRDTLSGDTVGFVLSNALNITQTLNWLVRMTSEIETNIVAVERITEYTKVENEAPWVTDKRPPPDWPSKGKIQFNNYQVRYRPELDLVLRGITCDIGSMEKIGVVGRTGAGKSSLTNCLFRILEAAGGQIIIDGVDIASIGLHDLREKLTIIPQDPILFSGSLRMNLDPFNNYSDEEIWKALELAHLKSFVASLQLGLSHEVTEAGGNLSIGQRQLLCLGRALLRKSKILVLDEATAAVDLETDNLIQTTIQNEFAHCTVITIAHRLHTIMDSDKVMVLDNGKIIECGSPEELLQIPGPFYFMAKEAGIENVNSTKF

Consider `O=c1cc(-c2ccccc2)oc2cc(O)c(O)c(O)c12` [baicalein], for which, at BCRP [1], the IC50 (as a rule, the concentration that inhibits the measured activity by half) was 22.1 µM and the “mean efflux ratio of Ph A in the presence of inhibitor” value is 1.48.

For `COc1cc([C@H]2Oc3cc([C@H]4Oc5cc(O)cc(O)c5C(=O)[C@@H]4O)ccc3O[C@@H]2CO)ccc1O` [silybin A], at BCRP [2], the net efflux ratio came out at 2.96. Also, at MRP2, the “mean net efflux ratio” value was 3.06.

Consider `COc1cc([C@@H]2Oc3cc([C@H]4Oc5cc(O)cc(O)c5C(=O)[C@@H]4O)ccc3O[C@H]2CO)ccc1O` [silybin B], for which the net efflux ratio at BCRP [2] came out at 3.04. Further, the “mean net efflux ratio” value on MRP2 is 3.30.

Take `COc1cc(C2Oc3cc([C@H]4Oc5cc(O)cc(O)c5C(=O)[C@@H]4O)ccc3OC2CO)ccc1O` (stereo partly shown) [silybin]: the BCRP substrate status result on BCRP [2] (dog, 180 min, 10 µM) was “is a substrate for both MRP2 and BCRP efflux proteins”. For the same compound, on MRP2 (dog, 180 min, 10 µM), the MRP2 substrate status result was “is a MRP2 substrate”.

`COc1ccc(-c2cc(=O)c3c(OC)c(OC)c(OC)c(OC)c3o2)cc1` [tangeretin]: on BCRP [1], it took 8.88 µM to reach half-maximal inhibition (IC50) and the “mean efflux ratio of Ph A in the presence of inhibitor” value was 1.18.
